Laboratory results as given in patent EP2177604A1, “Methods for identifying potential CYP4 metabolites, inhibitors or prodrugs” (PomBio Tech GmbH, priority 2008, dated 2010).
Like-named read-outs stand apart in the source and are kept apart here.

Molecular target: T1, human CYP4Z1 (Homo sapiens, UniProt Q86W10)
T1 sequence (Q86W10 1-505): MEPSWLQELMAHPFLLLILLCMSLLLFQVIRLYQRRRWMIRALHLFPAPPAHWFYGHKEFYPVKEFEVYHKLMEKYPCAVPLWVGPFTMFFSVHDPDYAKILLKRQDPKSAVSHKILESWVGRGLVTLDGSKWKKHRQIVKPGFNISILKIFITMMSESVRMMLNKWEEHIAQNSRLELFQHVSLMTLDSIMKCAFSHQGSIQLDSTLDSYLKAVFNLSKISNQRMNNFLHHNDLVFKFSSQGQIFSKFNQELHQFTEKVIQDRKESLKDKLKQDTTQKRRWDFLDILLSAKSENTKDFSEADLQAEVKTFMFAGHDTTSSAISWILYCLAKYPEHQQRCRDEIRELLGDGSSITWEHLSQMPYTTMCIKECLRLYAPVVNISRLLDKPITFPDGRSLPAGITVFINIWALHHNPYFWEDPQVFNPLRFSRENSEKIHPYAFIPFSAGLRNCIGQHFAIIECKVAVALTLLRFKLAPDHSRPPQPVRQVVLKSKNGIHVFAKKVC
Assay: whole-cell biotransformation (substrate conversion) assay with fission yeast strains expressing CYP4Z1
Settings: for metabolite formation / metabolism by human CYP4Z1: fission yeast strains AZ1 and AZ3, 1 mM substrate, 24 h at 30°C, HPLC (steroids, vitamin D, ebastine) or GC-MS (fatty acids)
Protocol: Possible substrates of human CYP4Z1 were tested by incubating the fission yeast strains AZ1 and AZ3 as well as the control strains NCYC2036 and CAD 62 with 1 mM substrate. […] Approximately 2*10^8 cells/mL were used per assay. Cells were grown in EMM medium containing 100 g/L glucose as well as the required supplements (leucine for AZ1 and CAD 62). Incubation was carried out either in 96 well microtiter plates or in 250 mL Erlenmeyer flasks with a cellulose stopper at a shaking velocity of 150 rpm for 24 h at 30°C.
Samples containing steroids as possible substrates were extracted with ethylacetate, evaporated and analyzed via HPLC (Alliance, Waters, USA) using a RP-18 column (Licrosphere 100, 5µM, Merck, Darmstadt) or a RP-8 column (Licrosphere 100, 5µM, Merck, Darmstadt). The column temperature was kept constant at 40°C. The mobile phase used for each sample is outlined in Suppl. Table. 1. When available, positive control reactions were carried out using strains expressing a P450 that is known to metabolize the respective substrate.
Fatty acid conversions were analyzed via GC-MS as previously described. Fatty acid extraction from S.pombe cells was performed using the Bligh and Dyer method.. Extracted samples were then evaporated to dryness, dissolved in a mixture of 500 µl methanol/toluene/sulphuric acid (50:50:2 V/V) and incubated at 55 °C overnight. 400µl of a 0.5 M […], 2 M KCl solution were added to the samples which were then centrifuged at RT, transferred to a GC vial and derivatised with 25 µl N-Methyl-N-(trimethylsilyl)trifluoroacetamide (37 °C for 1 hour). Fatty acid analysis was performed on an Agilent 6890N gas chromatograph coupled to an Agilent 5973N mass selective detector and equipped with a non-polar J&W DB-5HT capillary column, as described before.

SMILES	main hydroxylation position (MS fragmentation analysis) (CYP4Z1 whole-cell biotransformation, GC-MS, main product)	other hydroxylated fatty acids detected besides the main product (CYP4Z1 whole-cell biotransformation, GC-MS, minor products)	metabolite formation / metabolism by human CYP4Z1	main hydroxylation position (MS fragmentation analysis)	other hydroxylated fatty acids detected besides the main product
CCCCCCCCCCCCCC(=O)O [myristic acid]	mainly hydroxylated at position ω-2	ω-3-, ω-4-, ω-5-hydroxlated	able to hydroxylate		
C=C1CC[C@H](O)C/C1=C/C=C1\CCC[C@]2(C)[C@@H]([C@H](C)CCCC(C)C)CC[C@@H]12 [vitamin D3]			not metabolized		
CCCCCCCCCCCC(=O)O [lauric acid]				predominantly ω-4-hydroxylated	ω-2-, ω-3-, ω-5-hydroxylated
